How the values were obtained:
IFN-α2b [1] = biological target: T1, IFN-α2b (Homo sapiens, UniProt P01563); assay: CD thermal unfolding (Tm) of IFN-α2b; format: physicochemical; conditions: 0.125 mg/ml IFN-α2b, 200 mM component aqueous solution
T1 construct: single non-glycosylated polypeptide chain with a molecular weight of 19 kDa, comprising 165 amino acids; purchased Millipore Sigma-Aldrich SRP4595-100UG; host or cells: E. coli
Method: The same analyses attained for 208 nm and 192 nm are illustrated in Figures S5 and S6 in the Supplementary Materials. The corresponding T m values are estimated by fitting to a sigmoid with four parameters (one-way ANOVA, significance level of 0.05) and summarized in Table S2 in the Supplementary Materials. The CD T m of 0.125 mg/mL native IFN- α 2b is in good agreement with what was previously reported. […] The estimated T m values are summarized in Table S2 in the Supplementary Materials. The same analysis is attained for 208 nm and 192 nm, as depicted in Figures S5 and S6 in the Supplementary Materials. All the CD T m results are summarized in Table S2 in the Supplementary Materials. The thermal stability assessed by far-UV CD is solely determined through the thermal decay of the alpha-helical structure.
The same analysis was attained for 208 nm and 192 nm as illustrated in Figure S13 in the Supplementary Materials. The corresponding T m values are depicted in Table 5, and were estimated by fitting a sigmoid with four parameters (one-way ANOVA, with a significance level of 0.05).

[2] = parameters: method as in earlier work; conditions: aqueous solution at 25 °C, ref 3 (supplement; main text ref 71), cited from earlier work; for 1st CAC / 2nd CAC / 3rd CAC: ITC ([C2C1Im][C4F9SO3]) or conductometry ([N1112(OH)][C4F9SO3])
BSA [3] = biological target: T2, BSA (Bos taurus, UniProt P02769); assay: Far-UV CD secondary structure of BSA (CONTIN-LL deconvolution); format: physicochemical, bovine; parameters: Regular Alpha Helix / Distorted Alpha Helix / Regular Beta Sheet / Distorted Beta Sheet / Turns / Unordered: unit not given here; conditions: 1.0 mg/mL BSA, 25 °C
T2 construct: purchased Millipore Sigma-Aldrich
Excerpt: Circular dichroism (CD) is widely used to study the secondary structures of proteins, peptides and nucleic acids, because it requires a low concentration sample, is a nondestructive method, allows studying a wide range of variables (temperature, pH, etc.), and provides information on the effect of added ligands on protein folding and interactions. Far-UV (190–260 nm) CD spectroscopy was used to assess the IFN- α 2b and BSA secondary structure since the spectra are characteristic of different structural elements.
(§1) Circular dichroism (CD) spectra were collected in a 10 mm quartz cuvette and a Chirascan spectropolarimeter (Applied Photophysics, UK) at room temperature. All CD spectra were recorded in the far-UV range of 190 to 260 nm at scan rates of 50 nm/min, with 4 accumulations, and a response time of 3 s; CD spectra were collected. For each CD experiment, two distinct duplicates were acquired and combined. BSA was fixed at 1 mg/mL, solvent concentrations ranging from 0.1 to 200 mM were used, and the spectra were translated to MRE after being expressed in terms of molar ellipticity. Spectral deconvolution was carried out with DichroWeb using the CONTIN-LL deconvolution algorithm with the SMP180 reference set.

IFN-α2b [4] = biological target: T1, IFN-α2b; assay: Far-UV CD secondary structure of IFN-α2b (CONTIN-LL deconvolution); format: physicochemical; conditions: 0.125 mg/mL IFN-α2b, 200 mM component, 25 °C
Excerpt: Circular dichroism (CD) is widely used to study the secondary structures of proteins, peptides and nucleic acids, because it requires a low concentration sample, is a nondestructive method, allows studying a wide range of variables (temperature, pH, etc.), and provides information on the effect of added ligands on protein folding and interactions.
as §1, with “BSA was fixed at 1 mg/mL, solvent concentrations ranging from 0.1 to 200 mM were used, and the spectra were translated to MRE after being expressed in terms of molar ellipticity.” left out

BSA [5] = biological target: T2, BSA; assay: CD thermal unfolding (Tm) of BSA; format: physicochemical, bovine; conditions: 1.0 mg/ml BSA, 200 mM component aqueous solution
Excerpt: The thermal stability assessed by far-UV CD is solely determined through the thermal decay of the alpha-helical structure.

T2 sequence (P02769 25-607): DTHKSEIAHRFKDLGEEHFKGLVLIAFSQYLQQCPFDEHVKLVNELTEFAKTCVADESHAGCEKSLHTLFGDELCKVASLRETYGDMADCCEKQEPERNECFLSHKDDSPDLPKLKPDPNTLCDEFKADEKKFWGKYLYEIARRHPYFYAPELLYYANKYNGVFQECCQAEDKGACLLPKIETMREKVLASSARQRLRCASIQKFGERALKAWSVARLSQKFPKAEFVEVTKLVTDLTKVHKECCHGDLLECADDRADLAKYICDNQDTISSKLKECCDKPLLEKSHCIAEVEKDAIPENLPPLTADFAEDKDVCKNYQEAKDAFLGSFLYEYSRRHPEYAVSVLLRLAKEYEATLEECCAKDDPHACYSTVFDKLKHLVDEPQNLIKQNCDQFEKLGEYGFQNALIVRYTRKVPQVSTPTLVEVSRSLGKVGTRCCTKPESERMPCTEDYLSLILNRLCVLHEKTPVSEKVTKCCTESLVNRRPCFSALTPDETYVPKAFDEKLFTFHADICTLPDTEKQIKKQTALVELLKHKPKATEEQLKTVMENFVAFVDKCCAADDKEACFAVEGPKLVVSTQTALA
T1 sequence (P01563 24-188): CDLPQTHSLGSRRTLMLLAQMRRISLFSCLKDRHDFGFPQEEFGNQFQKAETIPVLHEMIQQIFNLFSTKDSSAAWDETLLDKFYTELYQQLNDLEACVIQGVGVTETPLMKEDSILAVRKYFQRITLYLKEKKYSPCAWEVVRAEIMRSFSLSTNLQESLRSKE

CCn1cc[n+](C)c1.O=S(=O)([O-])C(F)(F)C(F)(F)C(F)(F)C(F)(F)F [1-ethyl-3-methylimidazolium perfluorobutane sulfonate]
Tm, Ellipticity 192 nm (IFN-α2b [1]): 53.633 °C | 1st CAC [2]: 14.40 mM | 2nd CAC [2]: 34.48 mM | 3rd CAC [2]: 76.54 mM | 4th CAC ([2]; ITC): 106.09 mM | Distorted Alpha Helix (BSA [3]; 0.1 mM component): 0.206 | Distorted Beta Sheet (BSA [3]; 0.1 mM component): 0.029 | Regular Alpha Helix (BSA [3]; 0.1 mM component): 0.407 | Regular Beta Sheet (BSA [3]; 0.1 mM component): 0.000 | Turns (BSA [3]; 0.1 mM component): 0.142 | Unordered (BSA [3]; 0.1 mM component): 0.216 | Distorted Alpha Helix (BSA [3]; 1 mM component): 0.210 | Distorted Beta Sheet (BSA [3]; 1 mM component): 0.025 | Regular Alpha Helix (BSA [3]; 1 mM component): 0.401 | Regular Beta Sheet (BSA [3]; 1 mM component): 0.000 | Turns (BSA [3]; 1 mM component): 0.137 | Unordered (BSA [3]; 1 mM component): 0.226 | Distorted Alpha Helix (BSA [3]; 5 mM component): 0.207 | Distorted Beta Sheet (BSA [3]; 5 mM component): 0.027 | Regular Alpha Helix (BSA [3]; 5 mM component): 0.406 | Regular Beta Sheet (BSA [3]; 5 mM component): 0.007 | Turns (BSA [3]; 5 mM component): 0.138 | Unordered (BSA [3]; 5 mM component): 0.215 | Distorted Alpha Helix (BSA [3]; 25 mM component): 0.197 | Distorted Beta Sheet (BSA [3]; 25 mM component): 0.035 | Regular Alpha Helix (BSA [3]; 25 mM component): 0.384 | Regular Beta Sheet (BSA [3]; 25 mM component): 0.023 | Turns (BSA [3]; 25 mM component): 0.149 | Unordered (BSA [3]; 25 mM component): 0.212 | Distorted Alpha Helix (BSA [3]; 55 mM component): 0.210 | Distorted Beta Sheet (BSA [3]; 55 mM component): 0.026 | Regular Alpha Helix (BSA [3]; 55 mM component): 0.402 | Regular Beta Sheet (BSA [3]; 55 mM component): 0.000 | Turns (BSA [3]; 55 mM component): 0.140 | Unordered (BSA [3]; 55 mM component): 0.223 | Distorted Alpha Helix (BSA [3]; 90 mM component): 0.207 | Distorted Beta Sheet (BSA [3]; 90 mM component): 0.026 | Regular Alpha Helix (BSA [3]; 90 mM component): 0.382 | Regular Beta Sheet (BSA [3]; 90 mM component): 0.004 | Turns (BSA [3]; 90 mM component): 0.142 | Unordered (BSA [3]; 90 mM component): 0.239 | Distorted Alpha Helix (BSA [3]; 120 mM component): 0.206 | Distorted Beta Sheet (BSA [3]; 120 mM component): 0.032 | Regular Alpha Helix (BSA [3]; 120 mM component): 0.405 | Regular Beta Sheet (BSA [3]; 120 mM component): 0.014 | Turns (BSA [3]; 120 mM component): 0.147 | Unordered (BSA [3]; 120 mM component): 0.196 | Distorted Alpha Helix (BSA [3]; 200 mM component): 0.183 | Distorted Beta Sheet (BSA [3]; 200 mM component): 0.025 | Regular Alpha Helix (BSA [3]; 200 mM component): 0.316 | Regular Beta Sheet (BSA [3]; 200 mM component): 0.014 | Turns (BSA [3]; 200 mM component): 0.108 | Unordered (BSA [3]; 200 mM component): 0.354 | Distorted Alpha Helix (IFN-α2b [4]): 0.153 | Distorted Beta Sheet (IFN-α2b [4]): 0.069 | Regular Alpha Helix (IFN-α2b [4]): 0.292 | Regular Beta Sheet (IFN-α2b [4]): 0.05 | Turns (IFN-α2b [4]): 0.204 | Unordered (IFN-α2b [4]): 0.232

C[N+](C)(C)CCO.O=S(=O)([O-])C(F)(F)C(F)(F)C(F)(F)C(F)(F)F [[N1112(OH)][C4F9SO3], (2-hydroxyethyl)trimethylammonium perfluorobutane sulfonate]
Tm, Ellipticity 192 nm (IFN-α2b [1]): 35.992 °C | Tm, Ellipticity 208 nm (IFN-α2b [1]): 61.234 °C | Tm, Ellipticity 222 nm (IFN-α2b [1]): 56.542 °C | 1st CAC [2]: 16.02 mM | 2nd CAC [2]: 35.17 mM | 3rd CAC [2]: 185.65 mM | Distorted Alpha Helix (BSA [3]; 0.1 mM component): 0.214 | Distorted Beta Sheet (BSA [3]; 0.1 mM component): 0.025 | Regular Alpha Helix (BSA [3]; 0.1 mM component): 0.418 | Regular Beta Sheet (BSA [3]; 0.1 mM component): 0.000 | Turns (BSA [3]; 0.1 mM component): 0.138 | Unordered (BSA [3]; 0.1 mM component): 0.205 | Distorted Alpha Helix (BSA [3]; 1 mM component): 0.225 | Distorted Beta Sheet (BSA [3]; 1 mM component): 0.024 | Regular Alpha Helix (BSA [3]; 1 mM component): 0.428 | Regular Beta Sheet (BSA [3]; 1 mM component): 0.000 | Turns (BSA [3]; 1 mM component): 0.138 | Unordered (BSA [3]; 1 mM component): 0.185 | Distorted Alpha Helix (BSA [3]; 5 mM component): 0.222 | Distorted Beta Sheet (BSA [3]; 5 mM component): 0.025 | Regular Alpha Helix (BSA [3]; 5 mM component): 0.423 | Regular Beta Sheet (BSA [3]; 5 mM component): 0.000 | Turns (BSA [3]; 5 mM component): 0.139 | Unordered (BSA [3]; 5 mM component): 0.192 | Distorted Alpha Helix (BSA [3]; 25 mM component): 0.215 | Distorted Beta Sheet (BSA [3]; 25 mM component): 0.025 | Regular Alpha Helix (BSA [3]; 25 mM component): 0.406 | Regular Beta Sheet (BSA [3]; 25 mM component): 0.000 | Turns (BSA [3]; 25 mM component): 0.140 | Unordered (BSA [3]; 25 mM component): 0.214 | Distorted Alpha Helix (BSA [3]; 55 mM component): 0.208 | Distorted Beta Sheet (BSA [3]; 55 mM component): 0.027 | Regular Alpha Helix (BSA [3]; 55 mM component): 0.392 | Regular Beta Sheet (BSA [3]; 55 mM component): 0.000 | Turns (BSA [3]; 55 mM component): 0.144 | Unordered (BSA [3]; 55 mM component): 0.228 | Distorted Alpha Helix (BSA [3]; 90 mM component): 0.199 | Distorted Beta Sheet (BSA [3]; 90 mM component): 0.036 | Regular Alpha Helix (BSA [3]; 90 mM component): 0.376 | Regular Beta Sheet (BSA [3]; 90 mM component): 0.022 | Turns (BSA [3]; 90 mM component): 0.152 | Unordered (BSA [3]; 90 mM component): 0.215 | Distorted Alpha Helix (BSA [3]; 120 mM component): 0.205 | Distorted Beta Sheet (BSA [3]; 120 mM component): 0.032 | Regular Alpha Helix (BSA [3]; 120 mM component): 0.400 | Regular Beta Sheet (BSA [3]; 120 mM component): 0.012 | Turns (BSA [3]; 120 mM component): 0.147 | Unordered (BSA [3]; 120 mM component): 0.203 | Distorted Alpha Helix (BSA [3]; 200 mM component): 0.207 | Distorted Beta Sheet (BSA [3]; 200 mM component): 0.032 | Regular Alpha Helix (BSA [3]; 200 mM component): 0.406 | Regular Beta Sheet (BSA [3]; 200 mM component): 0.017 | Turns (BSA [3]; 200 mM component): 0.147 | Unordered (BSA [3]; 200 mM component): 0.191 | Tm, Ellipticity 208 nm (BSA [5]): 92.409 °C | Distorted Alpha Helix (IFN-α2b [4]): 0.148 | Distorted Beta Sheet (IFN-α2b [4]): 0.064 | Regular Alpha Helix (IFN-α2b [4]): 0.303 | Regular Beta Sheet (IFN-α2b [4]): 0.071 | Turns (IFN-α2b [4]): 0.188 | Unordered (IFN-α2b [4]): 0.226

Source: publication PMC10931833, “Simultaneous Purification of Human Interferon Alpha-2b and Serum Albumin Using Bioprivileged Fluorinated Ionic Liquid-Based Aqueous Biphasic Systems” (International Journal of Molecular Sciences, 2024)
